Results published in US20260137790A1, “MIXED VASOPRESSIN RECEPTOR AGONIST-ANTAGONIST FOR MODULATING MEAN ARTERIAL PRESSURE” (FERRING B.V., priority 2022, published 2026).

Tests used:
[1] = biological target: T1, rV2 (Rattus norvegicus, UniProt Q00788); assay: Luciferase reporter gene assay, rV2; assay type: cell-based; details: rV2, relative to dDAVP
T1 construct: host or cells: HEK-293 cells, transient
Experimental: (§1) Cell Maintenance. HEK-flp-in cells were maintained in Dulbecco's modified Eagle's medium (DMEM) containing 10% (v/v) heat-inactivated fetal bovine serum (FBS), 4 mM GlutaMAX™—I, and 25 μg/mL hygromycin B at 37° C. under 5% CO2 in a humidified atmosphere. […] On the day prior to the assay, cells were removed from culture flasks using trypsin EDTA, harvested in the medium used for cell culture, and seeded into 384-well (for V1a) or 96-well (for other receptors) poly-d-Iysine-treated plates at 7.5×10^4 cells in 20 μL/well for rV1a, 2.5×10^4 cells in 20 μL/well for hV1a, and 4-5×10^4 cells in 100 μL/well for all other receptors.
(§2) Functional Cell-Based Assays. To detect activity generated by binding of the test compounds to endogenous rV1a receptors or the stably expressed hV1a receptors, Fluorometric Imaging Plate Reader (FLlPR) calcium assays were performed. Briefly, real-time fluorescence of an intracellular calcium-sensitive dye was measured immediately upon addition of the test compound at various concentrations. […] Reporter gene assays were used to monitor agonist-induced activity at the human and rat V1b, V2, and OT receptors. […] Expression of the luciferase gene was determined after 5-h incubation with various concentrations of test compound. […] For V1a receptor response, area under the curve of the real-time calcium traces, expressed as relative fluorescence units, was determined. […]

[2] = test system: adult male Wistar rats; assay: Skin blood flow and blood lactate in anesthetized rats (IV infusion); assay type: in vivo, rat
Experimental: This study was performed over multiple experiments using a total of 48 adult male Wistar rats. […] Compounds were infused via an IV catheter at six sequentially increasing doses.
On the day of experimentation animals were anesthetized and instrumented. A tracheostomy was performed to allow assisted respiration and three catheters were placed. Laser Doppler probes were positioned on a shaved portion of the animal's lower abdominal skin for blood-flow measurements. Ventilation was initiated, and baseline readings for the primary parameter of skin blood flow (SBF) were recorded. Readings for the secondary parameters were also recorded: (1) blood lactate concentration, (2) mean arterial pressure (MAP), and (3) blood pH. Data collection was performed continuously for SBF and MAP using NOTOCORD-hem™ (Instem), and blood samples were taken at each compound dose and immediately analyzed using an i-STAT® meter.
After the final dose administration, animals were euthanized and a final SBF measurement was recorded to detect any signal from the flow probe after the animal's heart stopped beating to control for a signal not attributed to blood flow. Animal body temperature, pulse, and ventilation adequacy were monitored throughout the procedure.

[3] = biological target: T2, rOTR (Rattus norvegicus, UniProt P70536); details: relative to carbetocin
T2 sequence (P70536 1-388): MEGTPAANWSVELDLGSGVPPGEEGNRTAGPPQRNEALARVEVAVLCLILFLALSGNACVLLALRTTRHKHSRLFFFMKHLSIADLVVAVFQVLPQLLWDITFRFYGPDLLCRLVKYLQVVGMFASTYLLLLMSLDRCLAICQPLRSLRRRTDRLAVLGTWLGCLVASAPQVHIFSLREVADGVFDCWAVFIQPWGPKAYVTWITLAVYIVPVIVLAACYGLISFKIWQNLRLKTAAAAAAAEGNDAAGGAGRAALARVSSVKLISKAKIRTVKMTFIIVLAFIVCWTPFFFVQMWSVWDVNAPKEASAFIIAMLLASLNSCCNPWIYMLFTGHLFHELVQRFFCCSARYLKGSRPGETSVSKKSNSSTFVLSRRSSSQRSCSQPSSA
Experimental: as §1, §2

T1 sequence (Q00788 whole entry): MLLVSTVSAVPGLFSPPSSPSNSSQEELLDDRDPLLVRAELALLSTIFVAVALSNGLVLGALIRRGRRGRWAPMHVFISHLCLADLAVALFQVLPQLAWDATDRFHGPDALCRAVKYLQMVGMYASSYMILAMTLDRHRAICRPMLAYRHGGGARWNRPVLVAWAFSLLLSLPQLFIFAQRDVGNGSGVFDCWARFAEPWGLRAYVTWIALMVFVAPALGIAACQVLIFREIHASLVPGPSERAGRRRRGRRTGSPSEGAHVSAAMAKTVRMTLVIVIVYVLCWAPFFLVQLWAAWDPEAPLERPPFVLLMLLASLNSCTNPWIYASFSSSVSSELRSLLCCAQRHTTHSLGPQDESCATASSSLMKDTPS

**Q.** For NC(=O)CC[C@@H]1NC(=O)[C@H](Cc2ccccc2)NC(=O)[C@H](Cc2ccc(O)cc2)NC(=O)[C@@H](N)CSSC[C@@H](C(=O)N2CCC[C@H]2C(=O)N[C@@H](CCCN=C(N)N)C(=O)NCC(N)=O)NC(=O)[C@H](CC(N)=O)NC1=O [AVP, arginine vasopressin], which “% MPE Mean” value [1] is on record?
**A.** Its value is 98 % MPE.

**Q.** And the “ED50, skin blood flow” value ([2]; anesthetized rats, IV infusion)?
**A.** The value was 12.6 pmol/kg/min.

**Q.** And the “mean blood lactate concentration” value ([2]; rats, IV 3 pmoL/kg/min)?
**A.** Its value is 1.34 mM.

**Q.** And the “mean blood lactate concentration” value ([2]; rats, IV 600 pmoL/kg/min)?
**A.** The value was 4.27 mM.

**Q.** And the “blood lactate at highest doses tested” value ([2]; rats, IV, compared with vehicle)?
**A.** Its value is “significantly elevated”.

**Q.** What about the “decrease of skin blood flow from baseline (approximate maximal)” value ([2]; rats, intravenous administration) of the same compound?
**A.** Its value is “about 90%”.

**Q.** And the “% MPE Mean” value [3]?
**A.** The value was 82 % MPE.
